Experiment: Storage stability of IPBC in Dowanol TPM solution with cobalt dryer and stabilizer, IPBC amount by HPLC
Format: physicochemical
Settings: solution in Dowanol TPM with 10% by weight IPBC, 5% by weight Octasoligen-Cobalt 8, 5% by weight stabilizer; for Amount of IPBC (2 weeks, 40° C.): after two weeks storage at 40° C.; for Amount of IPBC (start): at the beginning
Method: A solution is prepared in Dowanol TPM (tripropylene glycol methyl ether), containing 10% by weight of iodopropargyl butylcarbamate, 5% by weight of Octasoligen-Cobalt 8 (Borchers, Langenfeld, Germany) and 5% by weight of the stabilizer specified in Table 1. The compositions are stored at 40° C. The amount of IPBC was determined by means of HPLC at the beginning and after two weeks.

SMILES	Amount of IPBC (2 weeks, 40° C.)	Amount of IPBC (start)
CC(C)(C)CC(C)(C)c1ccc(O)c(-n2nc3ccccc3n2)c1 [Example 3]	9.5%	9.9%
Cc1ccc(O)c(-n2nc3ccccc3n2)c1 [Example 4]	9.3%	9.9%
CC(C)(C)c1ccc(O)c(-n2nc3ccccc3n2)c1 [Example 5]	9.8%	9.8%

Now from value to compound:

Amount of IPBC (2 weeks, 40° C.)	Amount of IPBC (start)	SMILES
10.4%	11.3%	OCCc1ccc(O)c(-n2nc3ccccc3n2)c1 [Example 1]
9.3%	9.9%	C=C(C)C(=O)OCCc1ccc(O)c(-n2nc3ccccc3n2)c1 [Example 2]
